Columns and labels:
EKVX = test: NCI-60 one-dose screen, EKVX; type: cell-based; details: Homo sapiens, non-small cell lung cancer, single dose 10 μM, read-out: Growth inhibition %
HT29 = test: NCI-60 one-dose screen, HT29; type: cell-based; details: Homo sapiens, HT-29; HT29, colon cancer; single dose 10 μM; read-out: Growth inhibition %
SF-295 = test: NCI-60 one-dose screen, SF-295; type: cell-based; details: Homo sapiens; SF-295, CNS cancer; single dose 10 μM; read-out: Growth inhibition %
SR = test: NCI-60 one-dose screen, SR; type: cell-based; details: Homo sapiens, leukaemia, single dose 10 μM, read-out: Growth inhibition %
KM12 = test: NCI-60 one-dose screen, KM12; type: cell-based; details: Homo sapiens; KM12, colon cancer; single dose 10 μM; read-out: Growth inhibition %
SNB-19 = test: NCI-60 one-dose screen, SNB-19; type: cell-based; details: Homo sapiens; SNB-19, CNS cancer; single dose 10 μM; read-out: Growth inhibition %
HCT-116 = test: NCI-60 one-dose screen, HCT-116; type: cell-based; details: Homo sapiens; HCT-116, colon cancer; single dose 10 μM; read-out: Growth inhibition %
SK-OV-3 = test: NCI-60 one-dose screen, SK-OV-3; type: cell-based; details: Homo sapiens; SK-OV-3, ovarian cancer; single dose 10 μM; read-out: Growth inhibition %
K-562 = test: NCI-60 one-dose screen, K-562; type: cell-based; details: Homo sapiens, K562; K-562, leukaemia; single dose 10 μM; read-out: Growth inhibition %
CCRF-CEM = test: NCI-60 one-dose screen, CCRF-CEM; type: cell-based; details: Homo sapiens, leukaemia, single dose 10 μM, read-out: Growth inhibition %
OVCAR-4 = test: NCI-60 one-dose screen, OVCAR-4; type: cell-based; details: Homo sapiens; OVCAR-4, ovarian cancer; single dose 10 μM; read-out: Growth inhibition %
HS 578 T = test: NCI-60 one-dose screen, HS 578 T; type: cell-based; details: Homo sapiens, breast cancer, single dose 10 μM, read-out: Growth inhibition %
SK-MEL-5 = test: NCI-60 one-dose screen, SK-MEL-5; type: cell-based; details: Homo sapiens; SK-MEL-5, melanoma; single dose 10 μM; read-out: Growth inhibition %
MOLT-4 = test: NCI-60 one-dose screen, MOLT-4; type: cell-based; details: Homo sapiens; MOLT-4, leukaemia; single dose 10 μM; read-out: Growth inhibition %
OVCAR-8 = test: NCI-60 one-dose screen, OVCAR-8; type: cell-based; details: Homo sapiens; OVCAR-8, ovarian cancer; single dose 10 μM; read-out: Growth inhibition %
HOP-92 = test: NCI-60 one-dose screen, HOP-92; type: cell-based; details: Homo sapiens; HOP-92, non-small cell lung cancer; single dose 10 μM; read-out: Growth inhibition %
SK-MEL-28 = test: NCI-60 one-dose screen, SK-MEL-28; type: cell-based; details: Homo sapiens; SK-MEL-28, melanoma; single dose 10 μM; read-out: Growth inhibition %
HL-60(TB) = test: NCI-60 one-dose screen, HL-60(TB); type: cell-based; details: Homo sapiens, leukaemia, single dose 10 μM, read-out: Growth inhibition %
UO-31 = test: NCI-60 one-dose screen, UO-31; type: cell-based; details: Homo sapiens; UO-31, renal cancer; single dose 10 μM; read-out: Growth inhibition %
MDA-MB-231-ATCC = test: NCI-60 one-dose screen, MDA-MB-231-ATCC; type: cell-based; details: Homo sapiens, breast cancer, single dose 10 μM, read-out: Growth inhibition %
DU-145 = test: NCI-60 one-dose screen, DU-145; type: cell-based; details: Homo sapiens; DU-145, prostate cancer; single dose 10 μM; read-out: Growth inhibition %
SW-620 = test: NCI-60 one-dose screen, SW-620; type: cell-based; details: Homo sapiens; SW-620, colon cancer; single dose 10 μM; read-out: Growth inhibition %
MDA-MB-435 = test: NCI-60 one-dose screen, MDA-MB-435; type: cell-based; details: Homo sapiens; MDA-MB-435, melanoma; single dose 10 μM; read-out: Growth inhibition %
SF-268 = test: NCI-60 one-dose screen, SF-268; type: cell-based; details: Homo sapiens; SF-268, CNS cancer; single dose 10 μM; read-out: Growth inhibition %
NCI-H522 = test: NCI-60 one-dose screen, NCI-H522; type: cell-based; details: Homo sapiens; NCI-H522, non-small cell lung cancer; single dose 10 μM; read-out: Growth inhibition %
COLO 205 = test: NCI-60 one-dose screen, COLO 205; type: cell-based; details: Homo sapiens; COLO 205, colon cancer; single dose 10 μM; read-out: Growth inhibition %
NCI-H226 = test: NCI-60 one-dose screen, NCI-H226; type: cell-based; details: Homo sapiens; NCI-H226, non-small cell lung cancer; single dose 10 μM; read-out: Growth inhibition %
PC-3 = test: NCI-60 one-dose screen, PC-3; type: cell-based; details: Homo sapiens; PC-3, prostate cancer; single dose 10 μM; read-out: Growth inhibition %
U251 = test: NCI-60 one-dose screen, U251; type: cell-based; details: Homo sapiens, U-251; U251, CNS cancer; single dose 10 μM; read-out: Growth inhibition %
A498 = test: NCI-60 one-dose screen, A498; type: cell-based; details: Homo sapiens; A498, renal cancer; single dose 10 μM; read-out: Growth inhibition %
UACC-62 = test: NCI-60 one-dose screen, UACC-62; type: cell-based; details: Homo sapiens; UACC-62, melanoma; single dose 10 μM; read-out: Growth inhibition %
TK-10 = test: NCI-60 one-dose screen, TK-10; type: cell-based; details: Homo sapiens; TK-10, renal cancer; single dose 10 μM; read-out: Growth inhibition %
RPMI-8226 = test: NCI-60 one-dose screen, RPMI-8226; type: cell-based; details: Homo sapiens; RPMI-8226, leukaemia; single dose 10 μM; read-out: Growth inhibition %
OVCAR-3 = test: NCI-60 one-dose screen, OVCAR-3; type: cell-based; details: Homo sapiens; OVCAR-3, ovarian cancer; single dose 10 μM; read-out: Growth inhibition %

Compound	inhibition at 10 µM (EKVX) [%]	inhibition at 10 µM (HT29) [%]	inhibition at 10 µM (SF-295) [%]	inhibition at 10 µM (SR) [%]	inhibition at 10 µM (KM12) [%]	inhibition at 10 µM (SNB-19) [%]	inhibition at 10 µM (HCT-116) [%]	inhibition at 10 µM (SK-OV-3) [%]	inhibition at 10 µM (K-562) [%]	inhibition at 10 µM (CCRF-CEM) [%]	inhibition at 10 µM (OVCAR-4) [%]	inhibition at 10 µM (HS 578 T) [%]	inhibition at 10 µM (SK-MEL-5) [%]	inhibition at 10 µM (MOLT-4) [%]	inhibition at 10 µM (OVCAR-8) [%]	inhibition at 10 µM (HOP-92) [%]	inhibition at 10 µM (SK-MEL-28) [%]	melting point [°C]	inhibition at 10 µM (HL-60(TB)) [%]	inhibition at 10 µM (UO-31) [%]	other results
C1=Cc2ccccc2N(c2nnc(-c3ccc4ccccc4c3)o2)c2ccccc21 [Compound 5f, 2-(5 h-Dibenzo[b,f]azepin-5-yl)-5-(naphthalen-2-yl)-1,3,4-oxadiazole]	28.9	< 10	19.9	58.4	< 10	< 10	27.3	< 10	34	28.2	< 10	< 10	15.8	16.3	9.31	20.9	< 10	201 to 203	< 10	24.7	inhibition at 10 µM (MDA-MB-231-ATCC): < 10%; inhibition at 10 µM (DU-145): < 10%; inhibition at 10 µM (SW-620): < 10%; inhibition at 10 µM (MDA-MB-435): < 10%; inhibition at 10 µM (SF-268): 21.9%; inhibition at 10 µM (NCI-H522): 24.2%; inhibition at 10 µM (COLO 205): < 10%; inhibition at 10 µM (NCI-H226): 21.4%; inhibition at 10 µM (PC-3): 40.9%; inhibition at 10 µM (U251): 32.3%; inhibition at 10 µM (A498): < 10%; inhibition at 10 µM (UACC-62): 12.8%; inhibition at 10 µM (TK-10): 20.3%; inhibition at 10 µM (RPMI-8226): 12.1%; inhibition at 10 µM (OVCAR-3): 2.22%
C1=Cc2ccccc2N(c2nnc(Cc3ccccc3)o2)c2ccccc21 [Compound 5g, 2-Benzyl-5-(5H-dibenzo[b,f]azepin-5-yl)-1,3,4-oxadiazole]	2.24	< 10	< 10	17.6	< 10	< 10	31.4	< 10	14.9	15.6	< 10	24.1	< 10	10.9	16.5	< 10	< 10	189 to 191	10.6	30.7	inhibition at 10 µM (MDA-MB-231-ATCC): < 10%; inhibition at 10 µM (DU-145): 16.3%; inhibition at 10 µM (SW-620): 19.7%; inhibition at 10 µM (MDA-MB-435): < 10%; inhibition at 10 µM (SF-268): 10.7%; inhibition at 10 µM (NCI-H522): < 10%; inhibition at 10 µM (COLO 205): < 10%; inhibition at 10 µM (NCI-H226): < 10%; inhibition at 10 µM (PC-3): < 10%; inhibition at 10 µM (U251): 10.1%; inhibition at 10 µM (A498): < 10%; inhibition at 10 µM (UACC-62): 10.8%; inhibition at 10 µM (TK-10): 21.1%; inhibition at 10 µM (RPMI-8226): 27.8%; inhibition at 10 µM (OVCAR-3): 12.3%

Source: article PMC9848257, “Design and synthesis of novel rigid dibenzo[b,f]azepines through ring closure technique as promising anticancer candidates against leukaemia and acting as selective topoisomerase II inhibitors and DNA intercalators” (Journal of Enzyme Inhibition and Medicinal Chemistry, 2023)
